# Measurements reported in patent US20100028298A1 (priority 2006, published 2010).
# Numbered stars: 1 amine (or outer) side, 2 acyl side, 3 side chain; on linkers, the order of the positions; unused ones are H or OH. Bridge positions count the residues as written; N and C are the ends. Square brackets hold non-standard residues; d marks the D form. Peptide text beside a SMILES is read from it. X1 = CC1CC(C2=NC(C(=O)[*:2])CS2)N1[*:1]; NMeV = CN[CH](C(=O)O)C(C)C; X2 = O=C(C(O)CO[*:2])[*:1]; Pip = O=C(O)[CH]1CCCCN1; Dhb = C/C=C(\N)C(=O)O
# Tests used:
# [1] = tested on: interferon alpha activity in MXRage cells; assay: Cell-based virus-free type I interferon activity test, Mx-RAGE fibroblasts with eGFP reporter, flow cytometry, with interferon alpha; parameters: species or system murine
# [2] = tested on: interferon beta activity in MXRage cells; assay: Cell-based virus-free type I interferon activity test, Mx-RAGE fibroblasts with eGFP reporter, flow cytometry, with interferon beta; parameters: species or system murine; conditions: interferon beta standard curve, vioprolide A 50 ng/ml, FIG. 4 right panel
# [3] = tested on: Vesicular stomalitis virus (VSV, ssRNA negative); type: cell-based; conditions: MDBK cells, rhIFN-α2b alone and with 31 and 167 ng/ml vioprolide A, FIG. 5
# [4] = tested on: Herpes simplex virus strain 1 (HSV-1, dsDNA); assay: Antiviral effect on HSV-1, cytopathic effect on Vero cells; type: cell-based; conditions: Vero cells infected with 10^4 PFU/ml HSV-1, different concentrations of vioprolide A alone, FIG. 6
# [5] = tested on: human cervical carcinoma derived cell line WISH; assay: Antiproliferative activity on WISH cells; type: cell-based; conditions: in the presence of rhIFN-α2b, FIG. 7
# Procedure: FIG. 7: The antiproliferative effect of vioprolide A. The proliferation of WISH cells was tested at different concentrations of vioprolide A alone (grey) and in the present of IFN-α2b (black).
# Further, the antiproliferative effect of vioprolide A has been determined. Using standard assays, the antiproliferative activity was evaluated with human cervical carcinoma derived cell line WISH.
smiles,measurement,setting,value
C/C=C1\NC(=O)C2CSC(=N2)C2CC(C)N2C(=O)C(CC(C)C)NC(=O)C(C)NC(=O)C(O)COC(=O)C(C(C)C)N(C)C(=O)C(C(C)O)NC(=O)C2CCCCN2C1=O (stereo not shown) [vioprolide A] (AL[X1][Dhb][Pip]T[NMeV]; linker N-C via X2; configuration not given here),increase of GFP positive cells,"[1]; interferon alpha standard curve, vioprolide A 50 ng/ml, FIG. 4 left panel",remarkable increase
same,reduction of the amount of interferon alpha to obtain the same percent of GFP positive cells,"[1]; vioprolide A 50 ng/ml, FIG. 4 left panel",about 10 fold
same,increase of GFP positive cells with vioprolide plus interferon type I compared to interferon type I alone,"[1]; vioprolide A 0.2 to 400 ng/ml, serial two-fold dilutions, FIG. 3",≤ 4 fold
same,increase of GFP positive cells,[2],remarkable increase
same,anti-viral activity of IFN on VSV (cytopathic effect),[3],able to enhance the anti-viral activity of IFN on VSV
same,anti-viral activity on HSV-1 (cytopathic effect),[4],anti-viral activity
same,effect on cell growth inhibition,[5],additive effect
